In patent publication US9498483B2, “2,3,5-trisubstituted thiophene compounds and uses thereof” (priority 2010, dated 2016) one finds IC50 data, which are given here for 25 molecules.

A value given as a limit tells only on which side of the number the result lay.

The test system of assay [1] is HCV replicon I389luc-ubi-neo/NS3-3′/ET in ET (Huh-lucubineo-ET) cells. In words: Replicon assay (Biological Example 2), luciferase readout. The class given is cell-based. The following applies: Hepatitis C virus. A digest of the protocol: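 EC50 values come from Hill fits of % inhibition of replicon-driven firefly luciferase, relative to no-compound wells. Compounds were serially diluted (10 points, 3-fold, 0.1 nM–50 μM final, 0.5% DMSO) onto ET replicon cells and read after 48 h.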
On the technique in general: Replicon systems follow genome replication, usually without infectious particles.

The target in assay [2] is T1, HCV polymerase (Hepatitis C virus genotype 1b, UniProt Q9WMX2).
T1 construct: (His)6 (C); made in house; host or cells: XL-1 cells (E. coli, by own knowledge)
Nature of the assay: Polymerase assay of Biological Example 1 (IC50 values of Table 3). Type of assay: biochemical. As to conditions: IC50 values of Table 3, polymerase assay of Biological Example 1; read-out: NS5B-enzyme3.

The mark [3] stands for this setting: ET cells, luciferase activity 48 hours after compound.

On to `CC(C)(C)C#Cc1cc(N2C(=O)C(CCCO)(CCCO)OC[C@H]2C2CCCCC2)c(C(=O)O)s1` [Compound 115, 3-[(R)-5-Cyclohexyl-2,2-bis-(3-hydroxy-propyl)-3-oxo-morpholin-4-yl]-5-(3,3-dimethyl-but-1-ynyl)-thiophene-2-carboxylic acid], for which the IC50 was 100 to 5000 nM in assay [1] (between 100 nM and 5.0 uM); 4 nM in assay [2].

Consider `CC(C)(C)C#Cc1cc(N2C(=O)COC[C@H]2C2CCCCC2)c(C(=O)NS(C)(=O)=O)s1` [Compound 309, N-[3-((R)-3-Cyclohexyl-5-oxo-morpholin-4-yl)-5-(3,3-dimethyl-but-1-ynyl)-thiophene-2-carbonyl]-methanesulfonamide], for which the IC50 is 100 to 5000 nM in assay [1] (between 100 nM and 5.0 uM); 54 nM in assay [2].

As to `C[C@@H]1CCCN1c1ccc(S(=O)(=O)N2CC(=O)N(c3cc(-c4ccccc4)sc3C(=O)O)C(C3CCCCC3)C2)cn1` (stereo partly drawn) [Compound 118, 3-{2-Cyclohexyl-4-[6-((R)-2-methyl-pyrrolidin-1-yl)-pyridine-3-sulfonyl]-6-oxo-piperazin-1-yl}-5-phenyl-thiophene-2-carboxylic acid], the figures for the IC50 in assay [1] (setting [3]) and in assay [2] were not above 100 nM and 2 nM, respectively.

Consider `O=C(O)c1sc(-c2ccccc2)cc1N1C(=O)CN(S(=O)(=O)c2ccc(OC(F)(F)F)cc2)CC1C1CCCCC1` (centres unmarked) [Compound 53], for which the IC50 is 100 to 5000 nM in assay [1] (between 100 nM and 5.0 uM); 24 nM in assay [2].

Take `CC(C)c1ccc(S(=O)(=O)N2CC(=O)N(c3cc(C#CC(C)(C)C)sc3C(=O)O)[C@H](C3CCCCC3)C2)cc1` [Compound 176, 3-[(R)-2-Cyclohexyl-4-(4-isopropyl-benzenesulfonyl)-6-oxo-piperazin-1-yl]-5-(3,3-dimethyl-but-1-ynyl)-thiophene-2-carboxylic acid]: the IC50 in assay [1] (setting [3]) is not above 100 nM; in assay [2] it was 1410 nM.

On to `O=C(O)c1sc(-c2ccccc2)cc1N1C(=O)CN(S(=O)(=O)c2cccc3ccccc23)CC1C1CCCCC1` (centres unmarked) [Compound 110, 3-[2-Cyclohexyl-4-(naphthalene-1-sulfonyl)-6-oxo-piperazin-1-yl]-5-phenyl-thiophene-2-carboxylic acid], for which the figures for the IC50 in assay [1] (setting [3]) and in assay [2] were not below 5000 nM and 183 nM, respectively.

With `O=C(N[C@H]1CC(=O)N(c2cc(-c3ccccc3)sc2C(=O)O)[C@H](C2CCCCC2)C1)c1ccccc1` [Compound 24, 3-((2S,4R)-4-Benzoylamino-2-cyclohexyl-6-oxo-piperidin-1-yl)-5-phenyl-thiophene-2-carboxylic acid], the IC50 in assay [1] (between 100 nM and 5.0 uM) was 100 to 5000 nM; in assay [2], 44.5 nM.

`O=C(O)c1sc(-c2ccccc2)cc1N1C(=O)CN(S(=O)(=O)c2ccccc2)CC1C1CCCCC1` (centres unmarked) [Compound 52, 3-(4-Benzenesulfonyl-2-cyclohexyl-6-oxo-piperazin-1-yl)-5-phenyl-thiophene-2-carboxylic acid]: the IC50 in assay [1] (between 100 nM and 5.0 uM) was 100 to 5000 nM; in assay [2] it was 15 nM.

`CC(C)(C)C#Cc1cc(N2C(=O)[C@@H](O)CC[C@H]2C2CCCCC2)c(C(=O)O)s1` [Compound 322]: the IC50 in assay [1] (setting [3]) is not above 100 nM; in assay [2], 6 nM.

Turning to `CC(C)(C)OC(=O)N[C@H]1CCCN(c2ccc(S(=O)(=O)N3CC(=O)N(c4cc(-c5ccccc5)sc4C(=O)O)[C@H](C4CCCCC4)C3)cn2)C1` [Compound 158, 3-[(R)-4-((S)-3-tert-Butoxycarbonylamino-3,4,5,6-tetrahydro-2H-[1,2′]bipyridinyl-5′-sulfonyl)-2-cyclohexyl-6-oxo-piperazin-1-yl]-5-phenyl-thiophene-2-carboxylic acid], the IC50 was not above 100 nM in assay [1] (setting [3]) and 2 nM in assay [2].

For the molecule `COc1ccc(S(=O)(=O)N2CC(=O)N(c3cc(C#CC(C)(C)C)sc3C(=O)O)[C@H](C3CCCCC3)C2)cc1F` [Compound 246, 3-[(R)-2-Cyclohexyl-4-(3-fluoro-4-methoxy-benzenesulfonyl)-6-oxo-piperazin-1-yl]-5-(3,3-dimethyl-but-1-ynyl)-thiophene-2-carboxylic acid], the IC50 in assay [1] (setting [3]) is not above 100 nM; in assay [2], 4 nM.

`CC(C)S(=O)(=O)N1CC(=O)N(c2cc(C#CC(C)(C)C)sc2C(=O)O)[C@H](C2CCCCC2)C1` [Compound 221, 3-[(R)-2-Cyclohexyl-6-oxo-4-(propane-2-sulfonyl)-piperazin-1-yl]-5-(3,3-dimethyl-but-1-ynyl)-thiophene-2-carboxylic acid]: the IC50 in assay [1] (between 100 nM and 5.0 uM) was 100 to 5000 nM; in assay [2] it was 19 nM.

With `O=C(O)c1sc(-c2ccccc2)cc1N1C(=O)CCCC1C1CCCCC1` (centres unmarked) [Compound 4, 3-(2-Cyclohexyl-6-oxo-piperidin-1-yl)-5-phenyl-thiophene-2-carboxylic acid], the IC50 is 100 to 5000 nM in assay [1] (between 100 nM and 5.0 uM); 73 nM in assay [2].

Regarding `O=C(O)c1sc(-c2ccccc2)cc1N1C(=O)CN(Cc2ccc(N3CCCC3)nc2)C[C@H]1C1CCCCC1` [Compound 182, 3-[(R)-2-Cyclohexyl-6-oxo-4-(6-pyrrolidin-1-yl-pyridin-3-ylmethyl)-piperazin-1-yl]-5-phenyl-thiophene-2-carboxylic acid], the IC50 in assay [1] (setting [3]) was not above 100 nM; in assay [2], 2 nM.

Take `COC1CCN(c2ccc(S(=O)(=O)N3CC(=O)N(c4cc(-c5ccccc5)sc4C(=O)O)C(C4CCCCC4)C3)cn2)CC1` (centres unmarked) [Compound 94, 3-[2-Cyclohexyl-4-(4-methoxy-3,4,5,6-tetrahydro-2H-[1,2′]bipyridinyl-5′-sulfonyl)-6-oxo-piperazin-1-yl]-5-phenyl-thiophene-2-carboxylic acid]: the figures for the IC50 in assay [1] (setting [3]) and in assay [2] were not above 100 nM and 2 nM, respectively.

`CC(C)(C)OC(=O)N[C@@H]1CCN(c2ccc(S(=O)(=O)N3CC(=O)N(c4cc(-c5ccccc5)sc4C(=O)O)[C@H](C4CCCCC4)C3)cn2)C1` [Compound 146, 3-{(R)-4-[6-((R)-3-tert-Butoxycarbonyl-amino-pyrrolidin-1-yl)-pyridine-3-sulfonyl]-2-cyclohexyl-6-oxo-piperazin-1-yl}-5-phenyl-thiophene-2-carboxylic acid]: the IC50 in assay [1] (setting [3]) is not above 100 nM; in assay [2], 2 nM.

Turning to `O=C(O)c1sc(-c2ccccc2)cc1N1C(=O)CN(S(=O)(=O)c2ccc(N3CCC(F)(F)CC3)nc2)CC1C1CCCCC1` (centres unmarked) [Compound 95, 3-[2-Cyclohexyl-4-(4,4-difluoro-3,4,5,6-tetrahydro-2H-[1,2′]bipyridinyl-5′-sulfonyl)-6-oxo-piperazin-1-yl]-5-phenyl-thiophene-2-carboxylic acid], the IC50 is not above 100 nM in assay [1] (setting [3]) and 5 nM in assay [2].

Consider `C[C@@H](O)CC[C@]1(C)OC[C@@H](C2CCCCC2)N(c2cc(C#CC(C)(C)C)sc2C(=O)O)C1=O` [Compound 320, 3-[(2S,5R)-5-Cyclohexyl-2-((R)-3-hydroxy-butyl)-2-methyl-3-oxo-morpholin-4-yl]-5-(3,3-dimethyl-but-1-ynyl)-thiophene-2-carboxylic acid], for which the results for the IC50 in assay [1] (setting [3]) and in assay [2] were not above 100 nM and 6 nM, respectively.

As to `CS(=O)(=O)N1CC(=O)N(c2cc(-c3ccccc3)sc2C(=O)O)C(C2CCCCC2)C1` (centres unmarked) [Compound 26, 3-(2-Cyclohexyl-4-methanesulfonyl-6-oxo-piperazin-1-yl)-5-phenyl-thiophene-2-carboxylic acid], the IC50 in assay [1] (between 100 nM and 5.0 uM) is 100 to 5000 nM; in assay [2], 67 nM.

Consider `COc1ccc(S(=O)(=O)N2CC(=O)N(c3cc(C#CC(C)(C)C)sc3C(=O)O)[C@H](C3CCCCC3)C2)cc1OC` [Compound 277, 3-[(R)-2-Cyclohexyl-4-(3,4-dimethoxy-benzenesulfonyl)-6-oxo-piperazin-1-yl]-5-(3,3-dimethyl-but-1-ynyl)-thiophene-2-carboxylic acid], for which the figures for the IC50 in assay [1] (setting [3]) and in assay [2] were not above 100 nM and 2 nM, respectively.

Regarding `Cc1nn(C)cc1S(=O)(=O)N1CC(=O)N(c2cc(C#CC(C)(C)C)sc2C(=O)O)[C@H](C2CCCCC2)C1` [Compound 260, 3-[(R)-2-Cyclohexyl-4-(1,3-dimethyl-1H-pyrazole-4-sulfonyl)-6-oxo-piperazin-1-yl]-5-(3,3-dimethyl-but-1-ynyl)-thiophene-2-carboxylic acid], the IC50 in assay [1] (between 100 nM and 5.0 uM) was 100 to 5000 nM; in assay [2] it was 8 nM.

For `O=C(O)c1sc(-c2ccccc2)cc1N1C(=O)CN(S(=O)(=O)c2ccc(N3CCCCC3)nc2)C[C@H]1C1CCCCC1` [Compound 179, 3-[(R)-2-Cyclohexyl-6-oxo-4-(3,4,5,6-tetrahydro-2H-[1,2′]bipyridinyl-5′-sulfonyl)-piperazin-1-yl]-5-phenyl-thiophene-2-carboxylic acid], the IC50 is not above 100 nM in assay [1] (setting [3]) and 1 nM in assay [2].

As for `CC(C)(C)C#Cc1cc(N2C(=O)[C@@H](CCO)OC[C@H]2C2CCCCC2)c(C(=O)O)s1` [Compound 8, 3-[(2R,5R)-5-Cyclohexyl-2-(2-hydroxy-ethyl)-3-oxo-morpholin-4-yl]-5-(3,3-dimethyl-but-1-ynyl)-thiophene-2-carboxylic acid], the IC50 is not above 100 nM in assay [1] (setting [3]) and 1 nM in assay [2].

Consider `CC(=O)N1CCN(c2ccc(S(=O)(=O)N3CC(=O)N(c4cc(-c5ccccc5)sc4C(=O)O)C(C4CCCCC4)C3)cn2)CC1` (centres unmarked) [Compound 89, 3-{4-[6-(4-Acetyl-piperazin-1-yl)-pyridine-3-sulfonyl]-2-cyclohexyl-6-oxo-piperazin-1-yl}-5-phenyl-thiophene-2-carboxylic acid], for which the IC50 in assay [1] (setting [3]) was not above 100 nM; in assay [2], 3 nM.

As for `Cc1ccc(-c2cc(N3C(=O)CN(S(=O)(=O)c4ccc(N5CCOCC5)nc4)C[C@H]3C3CCCCC3)c(C(=O)O)s2)cc1` [Compound 187, 3-[(R)-2-Cyclohexyl-4-(6-morpholin-4-yl-pyridine-3-sulfonyl)-6-oxo-piperazin-1-yl]-5-p-tolyl-thiophene-2-carboxylic acid], the IC50 in assay [1] (setting [3]) was not above 100 nM; in assay [2], 1 nM.
